From the NIST ThermoML archive (doi:10.1021/je200226z) come the findings set out here.

The series is described as follows: mn = molality of the nth substance listed, in mol/kg. To be noted: 298.15 K, 101 kPa, Liquid, Westphal Balance.

± gives the expanded uncertainty stated by the source.

One may read the mass density as the mass of a sample divided by its volume. With `C=CCn1cc[n+](C)c1.[Cl-]` [1-allyl-3-methylimidazolium chloride] + O, the mass density (m1 = 0.05) amounted to 998.1 ± 0.14 kg/m3; the mass density (m1 = 0.1) amounted to 999 ± 0.14 kg/m3; the mass density (m1 = 0.15) is listed as 999.8 ± 0.14 kg/m3; the mass density (m1 = 0.25) is listed as 1001.3 ± 0.14 kg/m3; the mass density (m1 = 0.5) is on record as 1004.8 ± 0.14 kg/m3; the mass density (m1 = 0.75) came out at 1007.8 ± 0.13 kg/m3. Also, the mass density (m1 = 1) worked out at 1010.3 ± 0.12 kg/m3.
Regarding `OC[C@H]1O[C@@](CO)(O[C@H]2O[C@H](CO)[C@@H](O)[C@H](O)[C@H]2O)[C@@H](O)[C@@H]1O` [D-sucrose] + O, the mass density reads like this: (m1 = 0.02) 999.72 ± 0.14 kg/m3; (m1 = 0.06) 1004.87 ± 0.14 kg/m3; (m1 = 0.1) 1009.9 ± 0.14 kg/m3; (m1 = 0.15) 1016.06 ± 0.14 kg/m3; (m1 = 0.2) 1022.12 ± 0.14 kg/m3; (m1 = 0.25) 1027.95 ± 0.14 kg/m3.
